Here are results for 29 compounds from patent US12150995B2, “IRAK degraders and uses thereof” (Kymera Therapeutics, Inc., priority 2020, dated 2024).

For the assay, the target named is T1, IRAK4 (Homo sapiens, UniProt Q9NWZ3).
T1 construct: endogenous in cells; host or cells: OCI-LY10
T1 sequence (Q9NWZ3 1-460): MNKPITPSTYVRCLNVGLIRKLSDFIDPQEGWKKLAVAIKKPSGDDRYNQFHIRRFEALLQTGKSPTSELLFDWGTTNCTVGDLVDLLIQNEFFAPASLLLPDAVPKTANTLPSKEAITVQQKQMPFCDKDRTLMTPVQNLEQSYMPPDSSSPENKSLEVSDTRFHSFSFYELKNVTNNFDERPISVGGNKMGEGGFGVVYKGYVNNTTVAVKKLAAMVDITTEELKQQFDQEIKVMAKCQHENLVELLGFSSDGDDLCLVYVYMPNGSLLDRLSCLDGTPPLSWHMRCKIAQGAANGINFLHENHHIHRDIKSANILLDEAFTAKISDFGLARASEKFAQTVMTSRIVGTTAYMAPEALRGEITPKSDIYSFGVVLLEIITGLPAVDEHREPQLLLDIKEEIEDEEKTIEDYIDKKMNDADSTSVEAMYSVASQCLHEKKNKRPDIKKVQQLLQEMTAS
Put plainly: IRAK4 MSD Degradation in OCI-LY10. In kind it is cell-based. The conditions noted are these: OCI-LY10 cells, Meso Scale Discovery, incubated 4 to 24 hours. In a few lines:
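OCI-LY10 cells (300,000/well) exposed to an 8-point 1:3 series from a top concentration of 1 to 10 μM for 4 to 24 h at 37 °C. IRAK4 remaining in RIPA lysates quantified by MSD sandwich immunoassay; DC50 from a three-parameter logistic fit.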

`Cc1cccc(C(=O)Nc2cc3sc([C@H]4CC[C@H](C(=O)N5CC6(CC(CCNc7cccc8c7C(=O)N(C7CCC(=O)NC7=O)C8=O)C6)C5)CC4)nc3cc2C(C)(C)O)n1` (some centres unmarked) [I-469] displayed a DC50 of 0.1 to 0.2 µM. In turn, `Cn1c(=O)n(C2CCC(=O)NC2=O)c2cccc(N3CC4CC(C3)N4C[C@H]3CC[C@@H](n4cc5cc(NC(=O)c6cccc(C(F)(F)F)n6)ccc5n4)CC3)c21` (single isomer, unassigned) [I-156, N-[2-[4-[[3-[1-(2,6-dioxo-3-piperidyl)-3-methyl-2-oxo-benzimidazol-4-yl]-3,6-diazabicyclo[3.1.1]heptan-6-yl]methyl]cyclohexyl]indazol-5-yl]-6-(trifluoromethyl)pyridine-2-carboxamide] showed a DC50 of more than 0.2 µM. `Cc1cccc(C(=O)Nc2cc3sc([C@H]4CC[C@H](CN5C[C@@H]6C[C@H]5CN6CCNc5cccc6c5C(=O)N(C5CCC(=O)NC5=O)C6=O)CC4)nc3cc2C(C)(C)O)n1` (some centres unmarked) [I-473] gave a DC50 of 0.1 to 0.2 µM. In turn, `COc1cc2nn([C@H]3CC[C@H](CN(C)C4CCN(c5cccc6c(N7CCC(=O)NC7=O)cncc56)CC4)CC3)cc2cc1NC(=O)c1cncc(Cl)c1` [I-117] came in with a DC50 of 0.05 to 0.1 µM. Compound `CCc1cc2nn([C@H]3CC[C@H](CN4CCN(c5cccc6c(N7CCC(=O)NC7=O)cncc56)CC4)CC3)cc2cc1NC(=O)c1cccc(C(F)(F)F)n1` [I-377] returned a DC50 of less than 0.01 µM.

As to `Cn1c(=O)n(C2CCC(=O)NC2=O)c2cccc(C3CC4CCC(C3)N4C[C@H]3CC[C@H](n4cc5cc(NC(=O)c6cccc(C(F)(F)F)n6)ccc5n4)CC3)c21` (single isomer, unassigned) [I-251], the DC50 is less than 0.01 µM. In the case of `Cc1cc2nn([C@H]3CC[C@H](CN4CCN(c5cccc6c5n(C5CC5)c(=O)n6C5CCC(=O)NC5=O)CC4)CC3)cc2cc1NC(=O)c1cccc(C(F)(F)F)n1` (some centres unmarked) [I-304] it was 0.01 to 0.05 µM; in that of `COc1cc2nn([C@H]3CC[C@H](CN4CCN(c5c(OC)ccc6c5n(C)c(=O)n6C5CCC(=O)NC5=O)CC4)CC3)cc2cc1NC(=O)c1cccc(C(F)(F)F)n1` (some centres unmarked) [I-364], less than 0.01 µM; in that of `COc1cc2nn([C@H]3CC[C@H](CN4CCN(c5ccc(N6CCC(=O)NC6=O)cn5)CC4)CC3)cc2cc1NC(=O)c1cccc(C(F)(F)F)n1` [I-313], more than 0.2 µM. Regarding `COc1cc2nn([C@H]3CC[C@H](CN4CCN(c5cccc6c5n(C)c(=O)n6C5CCC(=O)NC5=O)C[C@H]4C)CC3)cc2cc1NC(=O)c1cccc(C(F)(F)F)n1` (some centres unmarked) [I-243], the DC50 is less than 0.01 µM. `Cn1c(=O)n(C2CCC(=O)NC2=O)c2ccc(Cl)c(C3CCN(C[C@H]4CC[C@H](n5cc6cc(NC(=O)c7cccc(C(F)(F)F)n7)ccc6n5)CC4)CC3)c21` (some centres unmarked) [I-106] yielded a DC50 of 0.01 to 0.05 µM. The value for `COc1cc2nn([C@H]3CC[C@H](CN4CCC(c5cccc6c(N7CCC(=O)NC7=O)cncc56)CC4)CC3)cc2cc1NC(=O)c1cncc(C#N)c1` [I-121] was 0.01 to 0.05 µM; that for `COc1cc2nn([C@H]3CC[C@H](CN(C)C4CCN(c5cccc6c5n(C)c(=O)n6C5CCC(=O)NC5=O)CC4)CC3)cc2cc1-n1cc(-c2cccc(C(F)(F)F)n2)nn1` (some centres unmarked) [I-100] was more than 0.2 µM; that for `COc1cc2nn([C@H]3CC[C@H](CN(C)C4CCN(c5c(Cl)ccc6c5n(C)c(=O)n6C5CCC(=O)NC5=O)CC4)CC3)cc2cc1NC(=O)c1cccc(C(F)(F)F)n1` (some centres unmarked) [I-53] was 0.01 to 0.05 µM.

Turning to `COc1cc2nn([C@H]3CC[C@H](CN4CCC(c5c(OC)ccc6c5n(C)c(=O)n6C5CCC(=O)NC5=O)CC4)CC3)cc2cc1NC(=O)c1cncc(Cl)c1` (some centres unmarked) [I-111], the DC50 was less than 0.01 µM. In turn, `COc1cc2nc([C@H]3CC[C@H](CN(C)CCCCNc4cccc5c4C(=O)N(C4CCC(=O)NC4=O)C5=O)CC3)sc2cc1NC(=O)c1cncc(C)c1` (some centres unmarked) [I-460] gave a DC50 of more than 0.2 µM.

`COc1cc2c(cc1NC(=O)c1cccc(C(F)(F)F)n1)cc([C@H]1CC[C@H](CN(C)C3CCN(c4cccc5c4n(C)c(=O)n5C4CCC(=O)NC4=O)CC3)CC1)n2C` (some centres unmarked) [I-41]: the DC50 was more than 0.2 µM. In the case of `N#Cc1cnc2c(C(=O)Nc3ccc4nn([C@H]5CC[C@H](CN6CCC(c7cccc8c(N9CCC(=O)NC9=O)cncc78)CC6)CC5)cc4c3)cnn2c1` [I-204, 6-Cyano-N-[2-[4-[[4-[4-(2,4-dioxohexahydropyrimidin-1-yl)-8-isoquinolyl]-1-piperidyl]methyl]cyclohexyl]indazol-5-yl]pyrazolo[1,5-a]pyrimidine-3-carboxamide] it was 0.01 to 0.05 µM. In the case of `CCn1c(=O)n(C2CCC(=O)NC2=O)c2cccc(N3CCN(C[C@H]4CC[C@H](n5cc6cc(NC(=O)c7cccc(C(F)(F)F)n7)c(OC)cc6n5)CC4)CC3)c21` (some centres unmarked) [I-253] it was less than 0.01 µM.

In the case of `Cc1cc2nn([C@H]3CC[C@H](CN4CCC(c5cccc6c5n(C)c(=O)n6[C@H]5CCC(=O)NC5=O)CC4)CC3)cc2cc1NC(=O)c1cccc(C(F)(F)F)n1` (single isomer, unassigned) [I-390], the DC50 lay within 0.01 to 0.05 µM. For `COc1cc2nn([C@H]3CC[C@H](CN4CC[C@H](c5cccc6c5n(C)c(=O)n6C5CCC(=O)NC5=O)CC4(C)C)CC3)cc2cc1NC(=O)c1cccc(C(F)(F)F)n1` (single isomer, unassigned) [I-292], the DC50 was less than 0.01 µM.

`CN(C[C@H]1C[C@H](n2cc3cc(NC(=O)c4cccc(C(F)(F)F)n4)c(C(F)F)cc3n2)C1)C1CCN(c2cccc3c2n(C)c(=O)n3C2CCC(=O)NC2=O)CC1` (some centres unmarked) [I-139] showed a DC50 of 0.01 to 0.05 µM.

As to `CC(C)Nc1cc(-n2ccc3cc(C(F)(F)F)cnc32)ncc1C(=O)N[C@H]1CC[C@H](CN2CCN(c3ccc4c(c3)n(C)c(=O)n4C3CCC(=O)NC3=O)CC2)CC1` (some centres unmarked) [I-374], the DC50 was more than 0.2 µM. In the case of `CC(C)(O)c1cc2nn([C@H]3CC[C@H](CN4C5CC4CN(c4cccc6c(N7CCC(=O)NC7=O)cncc46)C5)CC3)cc2cc1NC(=O)c1cccc(C(F)(F)F)n1` [I-228] it was less than 0.01 µM. Turning to `COc1ccc2c(c1C1CCN(C[C@H]3CC[C@H](n4cc5cc(NC(=O)c6cccc(C(F)(F)F)n6)ncc5n4)CC3)CC1)n(C)c(=O)n2C1CCC(=O)N(C)C1=O` (some centres unmarked) [I-245], the DC50 was more than 0.2 µM. The value for `COc1cc2nn([C@H]3CC[C@H](CN(C)C4CCN(c5cccc6c5n(C)c(=O)n6C5CCC(=O)NC5=O)CC4)CC3)cc2cc1NC(=O)c1cncc(C#N)c1` (some centres unmarked) [I-71, 5-cyano-N-[2-[4-[[[1-[1-(2,6-dioxo-3-piperidyl)-3-methyl-2-oxo-benzimidazol-4-yl]-4-piperidyl]-methyl-amino]methyl]cyclohexyl]-6-methoxy-indazol-5-yl]pyridine-3-carboxamide] was less than 0.01 µM. In the case of `Cn1c(=O)n(C2CCC(=O)NC2=O)c2cccc(N3CC4CC(C3)N4C[C@H]3CC[C@H](n4cc5cc(NC(=O)c6cccc(C(F)(F)F)n6)ccc5n4)CC3)c21` (single isomer, unassigned) [I-157, N-[2-[4-[[3-[1-(2,6-dioxo-3-piperidyl)-3-methyl-2-oxo-benzimidazol-4-yl]-3,6-diazabicyclo[3.1.1]heptan-6-yl]methyl]cyclohexyl]indazol-5-yl]-6-(trifluoromethyl)pyridine-2-carboxamide], the DC50 lay within 0.05 to 0.1 µM. Compound `Cc1cccc(C(=O)Nc2cc3sc([C@H]4CC[C@H](CN5C[C@H]6C[C@@H]5CN6CCCNc5cccc6c5C(=O)N(C5CCC(=O)NC5=O)C6=O)CC4)nc3cc2C(C)(C)O)n1` (some centres unmarked) [I-432] displayed a DC50 of 0.1 to 0.2 µM. On to `COc1cc2nn([C@H]3CC[C@H](CN4CCN(c5cccc6c5n(C)c(=O)n6C5CCC(=O)NC5=O)CC4)CC3)cc2cc1NC(=O)c1cncc(C(F)(F)F)n1` (some centres unmarked) [I-297], for which the DC50 is less than 0.01 µM.
